Source: BindingDB's records for doi:10.7270/Q2RJ4GVG (The Scripps Research Institute Molecular Screening Center, 2007)
pEC50: −log10 of the molar value.

Molecular target: T1, Isoform 2 of Nuclear receptor ROR-alpha (Alpha-2) (Homo sapiens, UniProt P35398)
T1 sequence (P35398 whole entry): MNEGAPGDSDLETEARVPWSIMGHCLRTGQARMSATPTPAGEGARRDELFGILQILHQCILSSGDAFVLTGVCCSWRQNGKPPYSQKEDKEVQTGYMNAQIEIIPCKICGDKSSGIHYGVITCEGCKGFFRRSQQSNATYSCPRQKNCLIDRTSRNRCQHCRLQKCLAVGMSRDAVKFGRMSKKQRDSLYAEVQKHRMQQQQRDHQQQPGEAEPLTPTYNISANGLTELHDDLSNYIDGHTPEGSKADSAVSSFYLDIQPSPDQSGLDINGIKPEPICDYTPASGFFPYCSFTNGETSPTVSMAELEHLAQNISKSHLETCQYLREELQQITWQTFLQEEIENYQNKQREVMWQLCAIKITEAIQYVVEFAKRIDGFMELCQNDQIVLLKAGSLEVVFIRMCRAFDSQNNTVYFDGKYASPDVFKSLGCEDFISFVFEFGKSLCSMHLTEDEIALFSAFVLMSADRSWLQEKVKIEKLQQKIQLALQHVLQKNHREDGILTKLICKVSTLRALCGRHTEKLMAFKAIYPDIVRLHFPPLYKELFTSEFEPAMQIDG
Experiment: activators of RORA nuclear receptor, dose response, cell-based, CHO-K1, Gal4-RORA LBD, luciferase luminescence (AID 681)

Compound | pEC50 | pEC50 (inactive by the depositor's call)
O=C(Nc1ccc2nc(-c3ccc(Br)o3)[nH]c2c1)c1cccs1 [SMR000046012] | 5.39 | 
O=C(CSc1nc[nH]n1)Nc1nnc(-c2ccccc2)s1 [SMR000091719] |  | 4.92
Oc1ccc(Cl)cc1C=Nc1nc2ccccc2[nH]1 [SMR000103225] | < 4.00 | 
Cc1nc(N=CN(C)C)sc1C(=O)Nc1ccccc1 [SMR000107046] | 5.29 | 
Cc1c(C(=O)OCC2CCCO2)[nH]c2c1C(=O)CC(c1ccco1)C2 (stereo not given) [oxolan-2-ylmethyl 6-(furan-2-yl)-3-methyl-4-oxo-1,5,6,7-tetrahydroindole-2-carboxylate] | 5.78 | 
